US20090137678A1, “HIGH YIELD SYNTHESIS METHODS FOR PRODUCING ORGANIC SALTS OF STRONTIUM” (priority 2005, published 2009)

Assays:
[1] = Heating of strontium malonate sesquihydrate to remove bound crystal water; assay type: physicochemical
Procedure: The crystal water was irreversibly detached from the malonate at temperatures above approx. 70° C. Thus, anhydrous strontium malonate was produced in high yield and high purity by boiling a solution of strontium malonate.

new vertebral fracture = settings: cited from earlier work

| SMILES | temperature above which crystal water is irreversibly detached [1] [°C] | RR of new vertebral fracture vs placebo (new vertebral fracture; 95% CI=0.48-0.73, P<0.001) | serum cross-linked C terminal telopeptides of type I collagen (CTX, marker of bone resorption) (new vertebral fracture; clinical studies, serum) | bone formation marker BSAP (new vertebral fracture; clinical studies) | patients who sustained a new vertebral fracture (new vertebral fracture; strontium treated group, vs 222 in the placebo group, more than 7000 individuals) [patients] |
| --- | --- | --- | --- | --- | --- |
| O.O.O.O=C([O-])CC(=O)[O-].O=C([O-])CC(=O)[O-].[Sr+2].[Sr+2] [strontium malonate sesquihydrate] | > 70 | – | – | – | – |
| N#Cc1c(N(CC(=O)[O-])CC(=O)[O-])sc(C(=O)[O-])c1CC(=O)[O-].[Sr+2].[Sr+2] [strontium ranelate] | – | 0.59 | decreased | increased | 139 |
